What follows are compounds tested against T1, Human CaV2.2 channels (Homo sapiens, UniProt Q00975) (assay: Fluorescence assay for CaV2.2 channels using potassium depolarization to induce channel opening (FLIPR, Fluo 4)). Details: 3 μM test compound; alternative assay buffer 30 mM KCl (inactivated channel state); HEK293 cells stably expressing human CaV2.2.
T1 construct: expressed in transfected cells
Type: cell-based
From the text: In the process, the Ca^2+ influx is quantified in the FLIPR assay with the aid of a Ca^2+-sensitive dye (type Fluo-4, Molecular Probes Europe BV, Leiden, the Netherlands) in a fluorescent imaging plate reader (FLIPR 3, Molecular Devices, Sunnyvale, USA), as described hereinafter.
2.1 Fluorescence Assay for CaV2.2 Channels Using Potassium Depolarization to Induce Channel Opening
Human CaV2.2 channels were stably expressed in HEK293 cells together with alpha2-delta and beta subunits of voltage gated calcium channels. In addition, an inwardly rectifying potassium channel (Kir2.3) was stably expressed in these cells to augment control of the cell membrane potential by the concentration of extracellular potassium ions. Raise of the extracellular potassium concentration leads to depolarization of the membrane potential and thus regulates the voltage dependent state of CaV2.2 channels. For preparation, cells were seeded in black poly-D-lysine coated 96-well plates (Becton Dickinson, Biocoat 4640) in 100 μL medium [500 mL DMEM/F-12 plus Glutamax (Invitrogen 31331-093) plus 5.5 mL MEM NEAA 100× (Invitrogen 11140-035) plus 50 mL FBS decomplemented (Invitrogen 10270-106) plus 200 μg/mL Geneticin (Invitrogen 10131-027) plus 50 μg/mL Hygromycin B (Invitrogen 10687-010) plus 2 μg/mL Blasticidin (anti-bl5b Invivo-Gen) plus 0.2 μg/mL Puromycin (A 11138-03)] at a cell density of 30.000 cells per well. Plates were incubated at 37° C. (5% CO2) for 20 to 23 h. On the day of experiment medium was discarded and cells were loaded with Fluo 4 by addition of 100 μL of basic assay buffer (10 mM HEPES, 1 mM KCl, 149 mM NaCl, 0.8 mM CaCl2, 1.7 mM MgCl2, 10 mM Glucose, 0.1% BSA. pH 7.4) containing 2 μM Fluo 4 (Molecular Probes; F-14201), 0.01% pluronic acid (Molecular Probes; P-6866) and 2.5 mM probenecid (Molecular Probes; P36400). Cells were incubated in the dark at 25° C. for 60 min. Then dye containing buffer was discarded and 100 μL basic (1 mM KCl) or alternative (30 mM KCl) assay buffer was added. The alternative assay buffer contained altered concentrations of KCl (30 mM) and NaCl (120 mM) and was used in order to promote the inactivated channel state. After that 25 μL of basic or alternative assay buffer with or without test compound were added and cells were incubated again in the dark at 25° C. for 15 min. Fluorescence intensity was measured on a FLIPR 3 instrument (Molecular Devices Corp., Sunnyvale, Calif.) with excitation at 480 nm and emission at 535 nm. After continuously reading fluorescence for 30 sec, 50 μL of basic assay buffer containing 210 mM KCl (NaCl omitted) were added for depolarization. Peak fluorescent signal intensity was determined and the amplitude of the peak signal, normalized to base line, was used to measure channel inhibition by test compounds.

T1 sequence (P54289 947-1103): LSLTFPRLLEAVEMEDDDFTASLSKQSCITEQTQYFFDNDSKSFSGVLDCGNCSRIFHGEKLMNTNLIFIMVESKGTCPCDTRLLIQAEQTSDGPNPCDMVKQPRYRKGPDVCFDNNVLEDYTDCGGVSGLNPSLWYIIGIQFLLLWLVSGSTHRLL
T1 sequence (P54289 25-946): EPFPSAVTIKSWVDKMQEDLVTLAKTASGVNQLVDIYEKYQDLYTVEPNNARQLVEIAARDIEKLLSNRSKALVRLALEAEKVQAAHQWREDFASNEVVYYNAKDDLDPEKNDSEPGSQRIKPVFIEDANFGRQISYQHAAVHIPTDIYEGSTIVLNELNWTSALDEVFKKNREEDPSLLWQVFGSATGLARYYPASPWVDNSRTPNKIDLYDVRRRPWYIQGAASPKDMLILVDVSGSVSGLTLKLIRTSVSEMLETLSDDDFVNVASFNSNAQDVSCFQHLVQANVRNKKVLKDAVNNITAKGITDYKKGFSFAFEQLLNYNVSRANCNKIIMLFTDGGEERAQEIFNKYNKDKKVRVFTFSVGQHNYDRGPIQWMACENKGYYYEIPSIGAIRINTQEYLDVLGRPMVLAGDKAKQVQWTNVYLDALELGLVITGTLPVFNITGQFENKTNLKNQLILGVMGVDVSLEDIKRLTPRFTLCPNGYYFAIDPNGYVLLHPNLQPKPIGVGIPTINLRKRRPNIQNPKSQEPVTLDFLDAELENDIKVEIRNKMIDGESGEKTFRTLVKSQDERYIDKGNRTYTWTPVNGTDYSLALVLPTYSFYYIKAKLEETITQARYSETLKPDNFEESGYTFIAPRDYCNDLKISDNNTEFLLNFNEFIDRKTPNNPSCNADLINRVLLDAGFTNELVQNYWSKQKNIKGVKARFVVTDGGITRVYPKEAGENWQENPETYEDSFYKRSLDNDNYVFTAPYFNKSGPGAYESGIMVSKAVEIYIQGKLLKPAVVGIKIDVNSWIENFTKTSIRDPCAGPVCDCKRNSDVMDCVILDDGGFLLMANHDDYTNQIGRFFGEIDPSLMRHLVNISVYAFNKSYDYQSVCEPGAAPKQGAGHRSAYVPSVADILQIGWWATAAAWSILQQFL
T1 sequence (P54284 whole entry, further chain): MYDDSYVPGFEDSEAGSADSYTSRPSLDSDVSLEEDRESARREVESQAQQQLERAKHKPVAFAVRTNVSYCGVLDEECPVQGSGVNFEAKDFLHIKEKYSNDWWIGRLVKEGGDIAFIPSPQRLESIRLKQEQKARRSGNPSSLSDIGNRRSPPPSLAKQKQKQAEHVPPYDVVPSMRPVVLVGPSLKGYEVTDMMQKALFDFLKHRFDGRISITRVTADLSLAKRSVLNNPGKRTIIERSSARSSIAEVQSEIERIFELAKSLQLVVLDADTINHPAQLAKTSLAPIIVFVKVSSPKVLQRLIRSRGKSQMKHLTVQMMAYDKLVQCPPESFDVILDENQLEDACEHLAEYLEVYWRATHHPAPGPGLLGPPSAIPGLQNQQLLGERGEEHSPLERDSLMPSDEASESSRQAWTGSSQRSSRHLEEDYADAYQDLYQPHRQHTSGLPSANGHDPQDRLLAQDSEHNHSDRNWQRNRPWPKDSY
T1 sequence (Q00975 whole entry): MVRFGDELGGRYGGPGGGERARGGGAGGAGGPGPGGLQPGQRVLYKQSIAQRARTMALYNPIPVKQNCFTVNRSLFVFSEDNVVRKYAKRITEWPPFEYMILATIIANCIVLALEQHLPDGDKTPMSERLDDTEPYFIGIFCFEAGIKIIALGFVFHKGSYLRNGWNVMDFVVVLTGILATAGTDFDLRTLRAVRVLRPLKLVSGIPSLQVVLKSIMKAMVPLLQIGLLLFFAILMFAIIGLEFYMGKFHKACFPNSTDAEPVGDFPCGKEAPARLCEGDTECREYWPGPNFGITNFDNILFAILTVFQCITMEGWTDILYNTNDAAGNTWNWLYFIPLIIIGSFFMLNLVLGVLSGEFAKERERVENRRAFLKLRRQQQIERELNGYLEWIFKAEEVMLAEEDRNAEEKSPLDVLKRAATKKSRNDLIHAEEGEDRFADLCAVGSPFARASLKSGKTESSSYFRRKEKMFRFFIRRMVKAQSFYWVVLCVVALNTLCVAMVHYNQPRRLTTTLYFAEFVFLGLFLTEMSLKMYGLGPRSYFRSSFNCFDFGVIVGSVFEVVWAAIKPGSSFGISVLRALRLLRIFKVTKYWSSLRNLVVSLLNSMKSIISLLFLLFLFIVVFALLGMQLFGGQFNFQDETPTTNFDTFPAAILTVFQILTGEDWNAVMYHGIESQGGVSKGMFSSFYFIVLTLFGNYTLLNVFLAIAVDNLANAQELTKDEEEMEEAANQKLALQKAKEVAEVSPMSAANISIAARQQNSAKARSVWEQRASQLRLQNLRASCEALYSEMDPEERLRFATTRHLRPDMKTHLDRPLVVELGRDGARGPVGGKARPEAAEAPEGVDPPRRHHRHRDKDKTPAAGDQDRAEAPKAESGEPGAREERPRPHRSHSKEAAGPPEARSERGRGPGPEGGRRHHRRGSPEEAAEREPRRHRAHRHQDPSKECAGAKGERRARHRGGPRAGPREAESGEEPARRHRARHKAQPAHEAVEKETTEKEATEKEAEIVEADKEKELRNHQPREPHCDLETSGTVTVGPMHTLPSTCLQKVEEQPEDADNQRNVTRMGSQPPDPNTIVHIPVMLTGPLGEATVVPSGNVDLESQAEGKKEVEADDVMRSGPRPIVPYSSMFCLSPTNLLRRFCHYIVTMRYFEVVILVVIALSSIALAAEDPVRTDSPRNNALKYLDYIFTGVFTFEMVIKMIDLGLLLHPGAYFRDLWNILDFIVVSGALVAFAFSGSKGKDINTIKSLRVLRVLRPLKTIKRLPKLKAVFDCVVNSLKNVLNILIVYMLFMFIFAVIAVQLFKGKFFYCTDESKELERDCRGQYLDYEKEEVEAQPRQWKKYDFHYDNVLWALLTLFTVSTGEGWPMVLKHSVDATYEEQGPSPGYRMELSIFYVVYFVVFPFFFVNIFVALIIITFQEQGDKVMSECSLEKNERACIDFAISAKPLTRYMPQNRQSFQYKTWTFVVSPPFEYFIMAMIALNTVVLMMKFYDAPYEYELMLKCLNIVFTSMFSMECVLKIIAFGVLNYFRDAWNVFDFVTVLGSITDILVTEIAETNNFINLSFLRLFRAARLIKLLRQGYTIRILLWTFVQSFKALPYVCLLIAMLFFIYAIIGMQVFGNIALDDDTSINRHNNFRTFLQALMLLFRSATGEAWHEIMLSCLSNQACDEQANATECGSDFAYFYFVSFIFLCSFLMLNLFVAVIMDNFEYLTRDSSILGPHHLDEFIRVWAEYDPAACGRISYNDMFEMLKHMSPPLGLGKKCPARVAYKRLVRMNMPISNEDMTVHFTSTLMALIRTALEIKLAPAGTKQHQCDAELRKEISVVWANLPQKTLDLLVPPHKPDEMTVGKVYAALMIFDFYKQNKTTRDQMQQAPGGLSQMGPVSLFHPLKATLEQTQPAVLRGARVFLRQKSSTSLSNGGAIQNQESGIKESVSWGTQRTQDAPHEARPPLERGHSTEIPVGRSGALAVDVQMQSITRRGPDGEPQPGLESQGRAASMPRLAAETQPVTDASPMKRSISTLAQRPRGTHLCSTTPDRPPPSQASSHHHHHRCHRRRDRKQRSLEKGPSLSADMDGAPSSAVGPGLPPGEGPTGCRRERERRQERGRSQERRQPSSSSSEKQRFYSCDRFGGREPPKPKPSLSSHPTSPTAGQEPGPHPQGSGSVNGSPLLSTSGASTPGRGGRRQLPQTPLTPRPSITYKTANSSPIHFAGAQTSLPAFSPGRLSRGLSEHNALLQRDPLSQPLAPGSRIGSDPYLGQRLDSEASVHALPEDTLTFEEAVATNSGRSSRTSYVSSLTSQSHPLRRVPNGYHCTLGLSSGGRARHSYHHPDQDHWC

`CCC1(S(=O)(=O)c2cccc(C(F)(F)F)c2)CCOC(c2ccc(C)nc2C)C1` (stereo not shown) [SC-317, 3-[4-Ethyl-4-[[3-(trifluoromethyl)phenyl]sulfonyl]-tetrahydro-pyran-2-yl]-2,6-dimethyl-pyridine] was tested. Which “Activity Category: %-Inhib (CaV2.2) @3 μM @30 mM KCl” value (shortened to “Activity Category: %-Inhib”) did it give?
The value was “C (%-Inhibition >40% up to ≤75%)”.

For `COc1cc(C#N)c(C2CC(C)(S(=O)(=O)c3cccc(C(F)(F)F)c3)CCO2)cn1` (stereo not shown) [SC-261, 2-Methoxy-5-[4-methyl-4-[[3-(trifluoromethyl)phenyl]sulfonyl]-tetrahydro-pyran-2-yl]-isonicotinonitrile], which “Activity Category: %-Inhib” value is on record?
Its value is “C (%-Inhibition >40% up to ≤75%)”.

How did the “Activity Category: %-Inhib” value turn out when `CC1(S(=O)(=O)c2cccc(OC(F)F)c2)CCOC(c2ncc(S(C)(=O)=O)cc2Cl)C1` (stereo not shown) [SC-436, 3-Chloro-2-[4-[[3-(difluoro-methoxy)-phenyl]sulfonyl]-4-methyl-tetrahydro-pyran-2-yl]-5-methylsulfonyl-pyridine] was run?
Its value is “C (%-Inhibition >40% up to ≤75%)”.

`CC(C)c1nnc(C2CC(C)(S(=O)(=O)c3cccc(C(F)(F)F)c3)CCO2)o1` (single isomer, unassigned) [SC-126, 2-Isopropyl-5-[4-methyl-4-[[3-(trifluoromethyl)phenyl]sulfonyl]-tetrahydro-pyran-2-yl]-[1,3,4]oxadiazole] was tested. Which “Activity Category: %-Inhib” value did it give?
Its value is “B (%-Inhibition >75% up to ≤95%)”.

For `CC1(S(=O)(=O)c2cccc(C(F)(F)F)c2)CCOC(COc2ccc(C(F)(F)F)nc2)C1` (stereo not shown) [SC-209, 5-[[4-Methyl-4-[[3-(trifluoromethyl)phenyl]sulfonyl]-tetrahydro-pyran-2-yl]-methoxy]-2-(trifluoromethyl)-pyridine], which “Activity Category: %-Inhib” value is on record?
The value was “A (%-Inhibition >95%)”.

For `CC1(S(=O)(=O)c2cccc(C(F)(F)F)c2)CCOC(c2ccc(S(C)(=O)=O)nc2)C1` (stereo not shown) [SC-336, 2-Methylsulfonyl-5-[4-methyl-4-[[3-(trifluoromethyl)phenyl]sulfonyl]-tetrahydro-pyran-2-yl]-pyridine], which “Activity Category: %-Inhib” value is on record?
Its value is “C (%-Inhibition >40% up to ≤75%)”.

Same assay, conditions: HEK293, 3 μM test compound; alternative assay buffer 30 mM KCl (inactivated channel state); HEK293 cells stably expressing human CaV2.2; read-out: Activity Category: %-Inhib (CaV2.2) @3 μM @30 mM KCl

For `CC1(S(=O)(=O)c2cccc(C(F)(F)F)c2)CCOC(c2ccc(C3CC3)nc2)C1` (racemic) [SC-347, 2-Cyclopropyl-5-[4-methyl-4-[[3-(trifluoromethyl)phenyl]sulfonyl]-tetrahydro-pyran-2-yl]-pyridine], which inhibition at 3 µM is on record?
Its inhibition at 3 µM is greater than 95%.

With `Cc1ccc(C2CC(S(=O)(=O)c3cccc(C(F)(F)F)c3)CCO2)c(C)n1` (stereo not shown) [SC-335, 2,6-Dimethyl-3-[4-[[3-(trifluoromethyl)phenyl]sulfonyl]-tetrahydro-pyran-2-yl]-pyridine] as the compound, how does the inhibition at 3 µM read?
The inhibition at 3 µM was 40 to 75%.

With `CC1(S(=O)(=O)c2cccc(C(F)(F)F)c2)CCOC(c2cncc(C(F)(F)F)c2)C1` (single isomer, unassigned) [SC-115, 3-[4-Methyl-4-[[3-(trifluoromethyl)phenyl]sulfonyl]-tetrahydro-pyran-2-yl]-5-(trifluoromethyl)-pyridine] as the compound, how does the inhibition at 3 µM read?
Its inhibition at 3 µM is 75 to 95%.

`CC1(S(=O)(=O)c2cccc(C(F)(F)F)c2)CCOC(c2cccc(C(F)(F)F)n2)C1` (racemic) [SC-351, 2-[4-Methyl-4-[[3-(trifluoromethyl)phenyl]sulfonyl]-tetrahydro-pyran-2-yl]-6-(trifluoromethyl)-pyridine] was tested. Which inhibition at 3 µM did it give?
Its inhibition at 3 µM is greater than 95%.

Which inhibition at 3 µM does the source give for `CC1(S(=O)(=O)c2cccc(C(F)(F)F)c2)CCOC(c2ncc(S(C)(=O)=O)cc2C2CC2)C1` (stereo not shown) [SC-270, 3-cyclopropyl-2-(4-methyl-4-(3-(trifluoromethyl)phenylsulfonyl)tetrahydro-2H-pyran-2-yl)-5-(methylsulfonyl)pyridine] here?
Its inhibition at 3 µM is 75 to 95%.

For `CC1(S(=O)(=O)c2cccc(C(F)(F)F)c2)CCOC(c2ncc(C(F)F)cc2Cl)C1` (stereo not shown) [SC-236, 3-Chloro-5-(difluoro-methyl)-2-[4-methyl-4-[[3-(trifluoromethyl)phenyl]sulfonyl]-tetrahydro-pyran-2-yl]-pyridine], which inhibition at 3 µM is on record?
The inhibition at 3 µM was 75 to 95%.

For `CC1(S(=O)(=O)c2cccc(C(F)(F)F)c2)CCOC(c2ccc(N3CCCC3)nc2)C1` (racemic) [SC-406, 5-[4-Methyl-4-[[3-(trifluoromethyl)phenyl]sulfonyl]-tetrahydro-pyran-2-yl]-2-pyrrolidin-1-yl-pyridine], which inhibition at 3 µM is on record?
Its inhibition at 3 µM is greater than 95%.

Reference: patent publication US9926302B2, “Heteroaryl substituted heterocyclyl sulfones” (priority 2014, dated 2018)
